Source: US20240366612A1, “COMPOUNDS AND METHODS FOR MODULATING NUCLEIC ACID SPLICING” (REMIX THERAPEUTICS INC., priority 2021, published 2024)
Where a name gives a salt, the structure may show the parent alone.

What was measured:
HTT CJ mRNA = test: Gene panel canonical junction qPCR assay, HTT; assay type: cell-based; conditions: Homo sapiens, larger gene panel, read-out: HTT IC50 (decrease in CJ mRNA levels)
Method: (§1) Compounds described herein were used to modulate RNA transcript abundance in cells. The expression of a target mRNA was measured by detecting the formation of an exon-exon junction in the canonical transcript (CJ). A compound mediated exon-inclusion event was detected by observing an increase in formation of a new junction with an alternative exon (AJ). Real-time qPCR assays were used to detect these splicing switches and interrogate the potency of various compounds towards different target genes. A high-throughput real time quantitative PCR (RT-qPCR) assay was developed to measure these two isoforms of the mRNA (CJ and AJ) for exemplary genes, such as HTT, SMN2, and MYB, together with a control housekeeping gene, GAPDH or GUSB or PPIA, used for normalization. Briefly, the A673 or K562 cell line was treated with various compounds described herein (e.g., compounds of Formula (I)). After treatment, the levels of the HTT, MYB, or SMN2 mRNA targets were determined from each sample of cell lysate by cDNA synthesis followed by qPCR.
(§2) The A673 cell line was cultured in DMEM with 10% FBS. Cells were diluted with full growth media and plated in a 96-well plate (15,000 cells in 100 ul media per well). The plate was incubated at 37° C. with 5% CO2 for 24 hours to allow cells to adhere. An 11-point 3-fold serial dilution of the compounds was made in DMSO then diluted in media in an intermediate plate. Compounds were transferred from the intermediate plate to the cell plate with the top dose at a final concentration of 10 uM in the well. Final DMSO concentration was kept at or below 0.25%. The cell plate was returned to the incubator at 37° C. with 5% CO2 for an additional 24 hours.
(§3) The K562 cell line was cultured in IMDM with 10% FBS. For K562, cells were diluted with full growth media and plated in either a 96-well plate (50,000 cells in 50 uL media per well) or a 384-well plate (8,000-40,000 cells in 45 uL media per well). An 11-point 3-fold serial dilution of the compounds were made in DMSO then diluted in media in an intermediate plate. Compound was transferred from the intermediate plate to the cell plate with the top dose at a final concentration of 10 uM in the well. Final DMSO concentration was kept at or below 0.25%. Final volume was 100 uL for 96-well plate and 50 uL for 384-well plate. The cell plate was then placed in an incubator at 37° C. with 5% CO2 for 24 hours.
(§4) The data analysis was performed by first determining the ΔCt vs the housekeeper gene. This ΔCt was then normalized against the DMSO control (ΔΔCt) and converted to RQ (relative quantification) using the 2^(−ΔΔCt) equation. The RQ were then converted to a percentage response by arbitrarily setting an assay window of 3.5 and 4.0 ΔCt for HTT-CJ and MYB-CJ respectively and an assay window of 9 and 3 ΔCt for HTT-AJ and MYB-AJ in 96 well format (50,000 K562 cells/well and 15,000 A673 cells per well) and an assay window of 3 and 4 ΔCt for HTT-CJ and MYB-CJ respectively and an assay window of 5 and 3 ΔCt for HTT-AJ and MYB-AJ respectively in 384 well format (8,000 K562 cells/well example). […] The percentage response was then fitted to the 4 parametric logistic equation to evaluate the concentration dependence of compound treatment. The increase in AJ mRNA is reported as AC50 (compound concentration having […] in AJ increase) while the decrease in CJ mRNA levels is reported as IC50 (compound concentration having 50% response in CJ decrease).
(§5) Additional studies were carried out for a larger panel of genes using the protocol provided above. The junction between flanking upstream and downstream exons was used to design canonical junction qPCR assays. At least one of the forward primer, reverse primer or the CY5-labeled 5′ nuclease probe (with 3′ quencher such as ZEN/Iowa Black FQ) was designed to overlap with the exon junction to capture the CJ mRNA transcript. […]

SMN2 CJ mRNA = test: Gene panel canonical junction qPCR assay, SMN2; assay type: cell-based; conditions: Homo sapiens, larger gene panel, read-out: SMN2 IC50 (decrease in CJ mRNA levels)
Method: as §1, §2, §3, §4, §5

[1] = tested on: HiBiT-tagged Target C protein in K562 cells; test: HiBiT protein abundance assay, Target C; assay type: cell-based, human; conditions: HiBiT-modified K562 cells, 24 hours, luminescence
Method: Compounds described herein were used to screen for effects on quantitative protein abundance using a HiBit assay system (Promega). Quantitative protein abundance was determined by measuring the protein levels of HiBit-tagged protein targets expressed in cell culture via luminescence using the Nano-Glo HiBiT Lytic Detection System, which uses a split complementation assay format to reconstitute NanoBiT enzyme to generate a luminescent signal. A protein abundance assay was developed such that endogenous protein targets could be modified with the HiBiT peptide tag and their abundance could be assessed after compound treatment. Briefly, K562 cell lines containing a HiBiT-modification were treated with various compounds described herein (e.g., compounds of Formulas (I), (II), or (III)). After treatment for 24 hours, the protein abundance of a specific target was determined by measuring luminescence.
• Promega Nano-Glo HiBiT Lytic Detection System (cat #N3030) • Corning 384-well TC-treated microplates (cat #3570) • Synthego Engineered Cells Knock-In Clones
Cells were maintained in IMDM with 10% FBS. Before the assay, cells were diluted with […] growth media (IMDM+1% FBS media) and were seeded in a 384-well plate at a density of 10000 cells/well (for each cell line listed in Table 5). Each compound was prepared as a 10-point 3-fold serial dilution in DMSO with the top dose at a final concentration of 10 μM in the well. Unmodified K562 cells were added at the previously specified density with DMSO to serve as an assay baseline and positive control (PC) and DMSO only with the respective modified cell lines was added to the negative control (NC) columns. Final DMSO concentration was kept at or below 0.25%. Treated cell plates were placed in an incubator at 37° C. with 5% CO2 for 24 hours. After 24 hours, 25 μL of Complete HiBit Lytic reagent was added to each well at room temperature (e.g. one plate requiring 10 mL Lytic Buffer, 100 μL LgBiT Protein, 200 μL Lytic Substrate), shaken for 5 minutes at 600 RPM, then left to sit for 10 minutes for signal to stabilize before reading on a Spark Cyto plate reader (Tecan) with a 500 ms measurement time.
To determine compound effects on protein abundance of each target in Table 5, the percent response for each respective cell line was calculated at each compound concentration as follows:
For the normalized response at each concentration, a four-parameter logistical regression was fit to the data and the response was interpolated at the 50% value to determine a concentration for protein abundance at 50% (IC50) the untreated control.

SMILES | IC50 (HTT CJ mRNA) [nM] | IC50 (SMN2 CJ mRNA) [nM] | IC50 [1] [nM]
Cc1cn2cc(-c3cc4ncn(N5CCNCC5)c(=O)c4s3)cc(F)c2n1 [Compound 269, 6-{8-fluoro-2-methylimidazo[1,2-a]pyridin-6-yl}-3-(piperazin-1-yl)thieno[3,2-d]pyrimidin-4-one] | 100 to 1000 | < 100 | 100 to 1000
Cc1cn2cc(-c3nc4sc(C5CCNCC5)cc4c(=O)[nH]3)cc(F)c2n1 [Compound 250, 2-(8-fluoro-2-methylimidazo[1,2-a]pyridin-6-yl)-6-(piperidin-4-yl)thieno[2,3-d]pyrimidin-4(3H)-one] | 100 to 1000 | 100 to 1000 | 100 to 1000
Cc1cn2cc(-c3cc4ncn(C5CCNCC5)c(=O)c4s3)cc(C)c2n1 [Compound 261] | 100 to 1000 | < 100 | 1000 to 10000
Cc1cn2cc(-c3cc4ncn(C5CCNCC5(F)F)c(=O)c4s3)cc(F)c2n1 (stereo not drawn) [Compound 274, 3-(3,3-difluoropiperidin-4-yl)-6-{8-fluoro-2-methylimidazo[1,2-a]pyridin-6-yl}thieno[3,2-d]pyrimidin-4-one] | > 10000 | 1000 to 10000 | > 10000
Cc1cc(-c2cc3ncn(C4CCNCC4)c(=O)c3s2)cc2cn(C)nc12 [Compound 236, 6-(2,7-dimethyl-2H-indazol-5-yl)-3-(piperidin-4-yl)thieno[3,2-d]pyrimidin-4(3H)-one] | < 100 | < 100 | 100 to 1000
Cc1cn2cc(-n3cnc4nc(N(C)C5CC(C)(C)NC(C)(C)C5)sc4c3=O)cc(F)c2n1 [Compound 227, 6-(8-fluoro-2-methylimidazo[1,2-a]pyridin-6-yl)-2-(methyl(2,2,6,6-tetramethylpiperidin-4-yl)amino)thiazolo[4,5-d]pyrimidin-7(6H)-one, formate] | > 10000 | > 10000 | > 10000
Cc1cn2nc(-c3cc(=O)n4cc(N5CCNC6(CC6)C5)sc4n3)cc(C)c2n1 [Compound 211, 7-(2,8-dimethylimidazo[1,2-b]pyridazin-6-yl)-2-(4,7-diazaspiro[2.5]octan-7-yl)-5H-thiazolo[3,2-a]pyrimidin-5-one] | 1000 to 10000 | 100 to 1000 | 1000 to 10000
Cc1cn2cc(-c3nn4c(=O)cc(N(C)C5CC(C)(C)NC(C)(C)C5)nc4s3)cc(F)c2n1 [Compound 215, 2-(8-fluoro-2-methylimidazo[1,2-a]pyridin-6-yl)-7-(methyl(2,2,6,6-tetramethylpiperidin-4-yl)amino)-5H-[1,3,4]thiadiazolo[3,2-a]pyrimidin-5-one] | 1000 to 10000 | 100 to 1000 | > 10000
Cc1cn2nc(-c3cc4ccn(C5CCN(C)CC5)c(=O)c4s3)cc(C)c2n1 [Compound 809] | 1000 to 10000 | 100 to 1000 | 1000 to 10000
Cc1cn2nc(-c3cc4ncn(C5CCNCC5)c(=O)c4s3)cc(C)c2n1 [Compound 238, 6-(2,8-dimethylimidazo[1,2-b]pyridazin-6-yl)-3-(piperidin-4-yl)thieno[3,2-d]pyrimidin-4(3H)-one] | 100 to 1000 | < 100 | 1000 to 10000
Cc1cn2nc(-c3nc4cnn(C5CCNCC5)c(=O)c4s3)cc(C)c2n1 [Compound 810] | 100 to 1000 | 100 to 1000 | 100 to 1000
Cc1cc(-c2cc3cnn(C4CCNCC4)c(=O)c3s2)cc2cn(C)nc12 [Compound 802, 2-(2,7-dimethyl-2H-indazol-5-yl)-6-(piperidin-4-yl)thieno[2,3-d]pyridazin-7(6H)-one] | 100 to 1000 | < 100 | 100 to 1000
Cc1cn2cc(-c3cc4ncn(C5CCNCC5)c(=O)c4s3)cc(F)c2n1 [Compound 235, 6-(8-fluoro-2-methylimidazo[1,2-a]pyridin-6-yl)-3-(piperidin-4-yl)thieno[3,2-d]pyrimidin-4(3H)-one] | < 100 | < 100 | 100 to 1000
Cc1cc(-c2nc3ncn(C4CCNCC4)c(=O)c3s2)cc2cn(C)nc12 [Compound 233, 2-(2,7-dimethyl-2H-indazol-5-yl)-6-(piperidin-4-yl)thiazolo[4,5-d]pyrimidin-7(6H)-one] | < 100 | < 100 | < 100
Cc1cc(-c2cc3ccn(C4CCNCC4)c(=O)c3s2)cc2cn(C)nc12 [Compound 805, 2-(2,7-dimethyl-2H-indazol-5-yl)-6-(piperidin-4-yl)thieno[2,3-c]pyridin-7(6H)-one] | 100 to 1000 | < 100 | 100 to 1000
Cc1cn2cc(-c3cc4ncn(C5CNCCC5=O)c(=O)c4s3)cc(F)c2n1 (stereo not drawn) [Compound 279, 3-(6-{8-fluoro-2-methylimidazo[1,2-a]pyridin-6-yl}-4-oxothieno [3,2-d]pyrimidin-3-yl)piperidin-4-one] | > 10000 | > 10000 | > 10000
COc1cc(-c2cc3ncn(C4CCNCC4)c(=O)c3s2)ccn1 [Compound 263] | 1000 to 10000 | 1000 to 10000 | 1000 to 10000
Cn1cc2cc(-c3cc4ncn(C5CCNCC5)c(=O)c4s3)cc(C#N)c2n1 [Compound 259] | 1000 to 10000 | < 100 | 1000 to 10000
Cc1cn2cc(-c3cc4ncn(C5=CCNCC5)c(=O)c4s3)cc(F)c2n1 [Compound 276, 6-{8-fluoro-2-methylimidazo[1,2-a]pyridin-6-yl}-3-(1,2,3,6-tetrahydropyridin-4-yl)thieno[3,2-d]pyrimidin-4-one] | 100 to 1000 | < 100 | 100 to 1000
